Data: PubChem BioAssay AID1083 (University of Pittsburgh Molecular Library Screening Center, 2008)
Values joined by “and” are separate entries in the source; they are usually repeats but may differ in a detail not shown here. Equal values may be shown once. Active and inactive are the calls of the source. The rule behind the calls is not given here.

These molecules were tested against Serine/threonine-protein kinase PLK1 (Homo sapiens) (UniProt P53350) (assay: PLK1 polo-box domain peptide-binding inhibitors, SAR follow-up, biochemical, fluorescence polarization, purchased analogs, concentration response (AID 1083)). Conditions: Plk1 PBD peptide binding.
Chain of Serine/threonine-protein kinase PLK1 (Homo sapiens) (P53350 whole entry, looked up, the tested form may be a part): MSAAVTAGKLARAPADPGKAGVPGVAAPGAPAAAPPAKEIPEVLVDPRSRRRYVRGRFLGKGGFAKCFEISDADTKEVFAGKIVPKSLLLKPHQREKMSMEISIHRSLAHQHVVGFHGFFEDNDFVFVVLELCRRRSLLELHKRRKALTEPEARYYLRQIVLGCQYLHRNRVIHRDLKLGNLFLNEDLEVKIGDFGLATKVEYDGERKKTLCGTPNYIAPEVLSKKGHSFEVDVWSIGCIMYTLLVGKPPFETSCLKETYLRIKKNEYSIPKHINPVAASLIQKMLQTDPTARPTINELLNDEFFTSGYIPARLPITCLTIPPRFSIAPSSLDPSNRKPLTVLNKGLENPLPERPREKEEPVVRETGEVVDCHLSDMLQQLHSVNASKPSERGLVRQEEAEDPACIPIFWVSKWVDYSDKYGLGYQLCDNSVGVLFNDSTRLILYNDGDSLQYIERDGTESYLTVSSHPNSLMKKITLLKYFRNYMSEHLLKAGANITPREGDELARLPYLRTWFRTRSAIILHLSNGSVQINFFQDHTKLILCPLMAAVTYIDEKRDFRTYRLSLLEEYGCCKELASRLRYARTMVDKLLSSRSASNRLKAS
For `Cc1ccc(C(=O)CN2C=CC(=C(O)NCc3ccccc3)C=C2)cc1`, the IC50 was > 50 µM (inactive). For `Cn1c(=O)[nH]c2nnc(-c3ccccc3)nc2c1=O`, the IC50 was > 50 µM (inactive). For `CC(=O)N(CN1C(=O)c2ccccc2C1=O)c1ccc(F)cc1`, the IC50 was > 50 µM (inactive). For `CCCCCC(=O)N(CN1C(=O)c2ccccc2C1=O)c1ccccc1OC`, the IC50 was > 50 µM (inactive). For `CCCCOC(=O)c1ccc(NC(=O)c2cc(OCC)c(OCC)c(OCC)c2)cc1`, the IC50 was > 50 µM (inactive). For `CCOC(=O)c1ccc(NC(=O)c2cc3ccccc3oc2=O)cc1`, the IC50 was > 50 µM (inactive). `CCn1nc(-c2ccc(C)cc2)nc2c(=O)n(C)c(=O)nc1-2` showed an IC50 of 0.932 µM. `CCOC(=O)c1ccc(NC(=O)C23CC4CC(CC(C4)C2)C3)cc1` was tested, and the IC50 was > 50 µM (inactive). `CCOC(=O)c1ccc(NC(=O)C2CC(=O)N=C(N)S2)cc1` (stereo not drawn) was tested, and the IC50 was > 50 µM (inactive). With `CC(=O)N(CN1C(=O)c2ccccc2C1=O)c1ccccc1Cl` the IC50 was > 50 µM (inactive). For `CCOC(=O)c1ccc(N=Cc2c(O)n(Cc3ccccc3)c(=O)[nH]c2=O)cc1`, the IC50 was > 50 µM (inactive). `Cc1ccccc1-c1nnc2[nH]c(=O)n(C)c(=O)c2n1` was tested, and the IC50 was > 50 µM (inactive). `CC(=O)Oc1c(Cl)c(N2CCOCC2)c(OC(C)=O)c2ccccc12` was tested, and the IC50 was > 50 µM (inactive). In the case of `CCCCCCC(=O)N(CN1C(=O)c2ccccc2C1=O)c1ccc(OCc2ccccc2)cc1`, the IC50 is reported as > 50 µM (inactive). With `Cc1ccccc1-c1nc2c(=O)n(C)c(=O)nc-2n(C)n1` the IC50 was 1.68 µM and 4.03 µM. `CC(=O)N(/C=C1\Sc2ccccc2C1=O)c1ccc(I)cc1` was tested, and the IC50 was > 50 µM (inactive). With `Cc1ccc(N(CN2C(=O)c3ccc([N+](=O)[O-])cc3C2=O)C(=O)C(c2ccccc2)c2ccccc2)cc1` the IC50 was > 50 µM (inactive). `CCOC(=O)c1ccc(NC(=O)c2cc(C)cc(C)c2)cc1` was tested, and the IC50 was > 50 µM (inactive). `Cc1ccc(-c2nc3c(=O)n(C)c(=O)nc-3n(C)n2)cc1` gave an IC50 of 1.35 µM. `COc1ccc(-c2nnc3[nH]c(=O)n(C)c(=O)c3n2)cc1OC` was tested, and the IC50 was > 50 µM (inactive). In the case of `COc1ccc(-c2nnc3[nH]c(=O)n(C)c(=O)c3n2)cc1`, the IC50 is reported as > 50 µM (inactive). `CCOC(=O)c1ccc(N=Cc2c(O)[nH]c(=O)[nH]c2=O)cc1` was tested, and the IC50 was > 50 µM (inactive). In the case of `O=C1NC(=O)C(=Cc2c3ccccc3cc3ccccc23)C(=O)N1`, the IC50 is reported as > 50 µM (inactive). `O=c1cc[nH]c2cc(N3CCOCC3)c(F)cc12` was tested, and the IC50 was > 50 µM (inactive). `CCOC(=O)c1ccc(N=Cc2c(O)n(Cc3cccs3)c(=O)[nH]c2=O)cc1` was tested, and the IC50 was > 50 µM (inactive). For `CCCCOC(=O)c1ccc(N=Cc2c(O)[nH]c(=O)[nH]c2=O)cc1`, the IC50 was > 50 µM (inactive). For `CCOC(=O)c1ccc(N=Cc2c(O)n(Cc3ccc4c(c3)OCO4)c(=O)[nH]c2=O)cc1`, the IC50 was > 50 µM (inactive). With `CCOC(=O)c1ccc(NC(=O)C2OCCc3ccccc32)cc1` (stereo not drawn) the IC50 was > 50 µM (inactive). `CCOC(=O)c1ccc(NC(=O)C2CCCCC2C(=O)O)cc1` (stereo not drawn) was tested, and the IC50 was > 50 µM (inactive). With `CCOC(=O)c1ccc(NC(=O)c2ccc3nc(N)sc3c2)cc1` the IC50 was > 50 µM (inactive). `CCCOC(=O)c1ccc(NC(=O)c2cc(-c3cccs3)nc3c(C)c(Cl)ccc23)cc1` was tested, and the IC50 was > 50 µM (inactive). For `CC(=O)N(CN1C(=O)c2ccccc2C1=O)c1cccc(F)c1`, the IC50 was > 50 µM (inactive). Work on `COc1ccccc1N(/N=C1\Sc2ccccc2C1=O)C(C)=O` yielded an IC50 of 13.3 µM. In the case of `COc1ccccc1N(/C=C1\Sc2ccccc2C1=O)C(C)=O`, the IC50 is reported as > 50 µM (inactive). For `CCc1ccc(-c2nc3c(=O)n(C)c(=O)nc-3n(CC)n2)cc1`, the IC50 was 0.786 µM and > 50 µM (inactive). In the case of `CCOc1cc(-c2nnc3[nH]c(=O)n(C)c(=O)c3n2)ccc1OC(C)C`, the IC50 is reported as 28.9 µM. `CC1CN(c2cc3nccnc3cc2F)CC(C)O1` (stereo not drawn) was tested, and the IC50 was > 50 µM (inactive). For `COc1ccc(-c2nc3c(=O)n(C)c(=O)nc-3n(C)n2)cc1OC`, the IC50 was 0.295 µM. In the case of `CCOC(=O)c1ccc(N=C(c2ccccc2)c2c(O)n(C)c(=O)n(C)c2=O)cc1`, the IC50 is reported as > 50 µM (inactive). Molecule `CC(=O)N(/N=C1\Sc2ccccc2C1=O)c1cccc(C)c1` has an IC50 of 14 µM. With `CCOC(=O)c1ccc(NC(=O)c2cncc(Br)c2)cc1` the IC50 was > 50 µM (inactive). For `CCOC(=O)c1ccc(NC(=O)C2C3C=CC(C3)C2C(=O)O)cc1` (stereo not drawn), the IC50 was > 50 µM (inactive). In the case of `CC(=O)N(CN1C(=O)c2ccc(Br)cc2C1=O)c1ccc(Cl)cc1`, the IC50 is reported as > 50 µM (inactive). In the case of `CCCCCCC(=O)N(CN1C(=O)c2ccccc2C1=O)c1ccccc1`, the IC50 is reported as > 50 µM (inactive). Molecule `CC(=O)N(/N=C1\Sc2ccccc2C1=O)c1ccc(Br)cc1` has an IC50 of 45.8 µM. In the case of `CCOC(=O)N1CCN(c2cc3nccnc3cc2F)CC1`, the IC50 is reported as > 50 µM (inactive). With `CCCCCC(=O)N(CN1C(=O)c2ccccc2C1=O)c1cccc(C(=O)O)c1` the IC50 was > 50 µM (inactive). With `CCn1c(N/C(O)=C/C(O)(C(F)(F)F)C(F)(F)F)nc2ccccc21` the IC50 was > 50 µM (inactive). For `Cn1nc(-c2ccc(F)cc2)nc2c(=O)n(C)c(=O)nc1-2`, the IC50 was 0.325 µM. `CCOC(=O)c1ccc(NC(=O)C2CC(=O)NC(=NC)S2)cc1` (stereo not drawn) was tested, and the IC50 was > 50 µM (inactive). In the case of `CN(C)c1ccc(-c2nnc3c(n2)c(=O)n(C)c(=O)n3C)cc1`, the IC50 is reported as > 50 µM (inactive). With `COc1cc(C=C2C(=O)NC(=O)NC2=O)ccc1OCc1ccc(Cl)cc1Cl` the IC50 was > 50 µM (inactive). In the case of `CC(=O)N(CN1C(=O)c2ccccc2C1=O)c1ccc(Oc2ccccc2)cc1`, the IC50 is reported as > 50 µM (inactive). `CCOC(=O)c1ccc(N=Cc2c(O)n(-c3cccc(C)c3)c(=O)[nH]c2=O)cc1` was tested, and the IC50 was > 50 µM (inactive). `CC(=O)N(CN1C(=O)c2ccccc2C1=O)c1cccc(C)c1` was tested, and the IC50 was > 50 µM (inactive). `CCOC(=O)c1ccc(N=Cc2c(O)n(-c3ccc(OCC)cc3)c(=O)[nH]c2=O)cc1` was tested, and the IC50 was > 50 µM (inactive). With `CCOC(=O)c1ccc(NC(=O)c2ccc3snnc3c2)cc1` the IC50 was > 50 µM (inactive). With `CC(=O)N(/C=C1\Sc2ccccc2C1=O)c1ccc(C)cc1` the IC50 was > 50 µM (inactive). `CCn1nc(-c2ccc(C(F)(F)F)cc2)nc2c(=O)n(C)c(=O)nc1-2` showed an IC50 of 0.552 µM. `Cn1c(=O)[nH]c2nnc(-c3ccc(F)cc3)nc2c1=O` was tested, and the IC50 was > 50 µM (inactive). With `CCOC(=O)c1ccc(NC(=O)c2cc3ccccc3c(=O)o2)cc1` the IC50 was > 50 µM (inactive). `Cn1c(=O)[nH]c2nnc(-c3ccc(C(F)(F)F)cc3)nc2c1=O` was tested, and the IC50 was > 50 µM (inactive). For `CCOC(=O)c1ccc(NC(=O)C2Oc3ccccc3OC2C)cc1` (stereo not drawn), the IC50 was > 50 µM (inactive).
